Measurements as given in patent publication US20230416205A1, “COMPOUNDS, COMPOSITIONS, AND METHODS” (Denali Therapeutics Inc, priority 2020, published 2023).
Read-outs that look alike come from different tables or passages of the source.

Test system: NLRP3
Assay: IL-1β secretion assay in PMA-differentiated, LPS/nigericin-stimulated THP-1 cells (384-well, ELISA read-out)
Format: cell-based, human
Conditions: IL-1β secretion, LPS/nigericin-stimulated THP-1 cells, read-out: IC50
Procedure, shortened: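 Secreted IL-1β quantified by capture ELISA from supernatants of PMA-differentiated THP-1 cells (30K per well). Sequence: LPS 25 ng/mL priming 2 h, compound 1 h, nigericin 2 h; dose-responses normalized between high (LPS plus 5 μM nigericin) and low (LPS alone) controls.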

Row | Structure (SMILES) | IC50 (Homo sapiens, THP-1, Table 4) [µM] | IC50 (Table 4) [µM]
1 | CCc1ccc2c(c1)C1(CC1)CN(CC(=O)Nc1ncc(F)cn1)C2=O [Example 314, 2-(6-ethyl-1-oxospiro[3H-isoquinoline-4,1′-cyclopropane]-2-yl)-N-(5-fluoropyrimidin-2-yl)acetamide] | 0.784 | –
2 | O=C(CN1CC2(CC2)c2c(ccc3sccc23)C1=O)Nc1ncc(F)cn1 [Example 315, N-(5-fluoropyrimidin-2-yl)-2-(6-oxospiro[8H-thieno[3,2-f]isoquinoline-9,1′-cyclopropane]-7-yl)acetamide] | 8.92 | –
3 | COCOc1cnc(NC(=O)CN2CC3(CC3)c3cc(Br)ccc3C2=O)nc1 [Example 316, 2-(6-bromo-1-oxospiro[3H-isoquinoline-4,1′-cyclopropane]-2-yl)-N-[5-(methoxymethoxy)pyrimidin-2-yl]acetamide] | 0.704 | –
4 | CC1(O)CC(NC(=O)CN2C[C@]3(C[C@H]3F)c3cc(Br)ccc3C2=O)C1 (stereo partly drawn) [Example 321, N-(cis-3-hydroxy-3-methylcyclobutyl)-2-[(2′R,4S)-6-bromo-2′-fluoro-1-oxospiro[3H-isoquinoline-4,1′-cyclopropane]-2-yl]acetamide] | 0.009 | –
5 | O=C(CN1CC2(CC2(F)F)c2c(ccc(C3CC3)c2F)C1=O)Nc1ncc(F)cn1 (centres unmarked) [Example 322, N-(5-fluoropyrimidin-2-yl)-2-[6-cyclopropyl-1′,1′,5-trifluoro-1-oxospiro[3H-isoquinoline-4,2′-cyclopropane]-2-yl]acetamide] | 0.038 | –
6 | O=C(CN1CC2(CC2)c2cc(Br)ccc2C1=O)Nc1ncc2c(n1)OCC2 [Example 329, 2-(6-bromo-1-oxospiro[3H-isoquinoline-4,1′-cyclopropane]-2-yl)-N-(5,6-dihydrofuro[2,3-d]pyrimidin-2-yl)acetamide] | 0.93 | –
7 | O=C(CN1CC2(CC2)c2cc(Br)ccc2C1=O)Nc1ncc2c(n1)COCC2 [Example 330, 2-(6-bromo-1-oxospiro[3H-isoquinoline-4,1′-cyclopropane]-2-yl)-N-(6,8-dihydro-5H-pyrano[3,4-d]pyrimidin-2-yl)acetamide] | 1.02 | –
8 | O=C(CN1CC2(CC2)c2cc(Br)ccc2C1=O)Nc1ncc2c(n1)CCOC2 [Example 331, 2-(6-bromo-1-oxospiro[3H-isoquinoline-4,1′-cyclopropane]-2-yl)-N-(7,8-dihydro-5H-pyrano[4,3-d]pyrimidin-2-yl)acetamide] | 0.97 | –
9 | O=C(CN1CC2(CC2)c2cc(Br)ccc2C1=O)Nc1ncc(C2COC2)cn1 [Example 332, 2-(6-bromo-1-oxospiro[3H-isoquinoline-4,1′-cyclopropane]-2-yl)-N-[5-(oxetan-3-yl)pyrimidin-2-yl]acetamide] | 0.768 | –
10 | O=C(CN1CC2(CC2)c2cc(Br)ccc2C1=O)Nc1nc2ccnn2cc1F [Example 333, 2-(6-bromo-1-oxospiro[3H-isoquinoline-4,1′-cyclopropane]-2-yl)-N-(6-fluoropyrazolo[1,5-a]pyrimidin-5-yl)acetamide] | 0.895 | –
11 | O=C(CN1CC2(CC2)c2cc(Br)ccc2C1=O)N[C@H]1C[C@@H](c2ccn[nH]2)C1 [Example 334, 2-(6-bromo-1-oxospiro[3H-isoquinoline-4,1′-cyclopropane]-2-yl)-N-[3-cis-(1H-pyrazol-5-yl)cyclobutyl]acetamide] | 7.51 | –
12 | Cn1nc(NC(=O)CN2CC3(CC3)c3cc(Br)ccc3C2=O)ccc1=O [Example 335, 2-(6-bromo-1-oxospiro[3H-isoquinoline-4,1′-cyclopropane]-2-yl)-N-(1-methyl-6-oxopyridazin-3-yl)acetamide] | 2.08 | –
13 | O=C(CN1CC2(CC2)c2cc(C3COC3)ccc2C1=O)Nc1ncc(F)cn1 [Example 336, N-(5-fluoropyrimidin-2-yl)-2-[6-(oxetan-3-yl)-1-oxospiro[3H-isoquinoline-4,1′-cyclopropane]-2-yl]acetamide] | 23.2 | –
14 | Cn1cc(NC(=O)CN2CC3(CC3)c3cc(Br)ccc3C2=O)ncc1=O [Example 337, 2-(6-bromo-1-oxospiro[3H-isoquinoline-4,1′-cyclopropane]-2-yl)-N-(4-methyl-5-oxopyrazin-2-yl)acetamide] | 7.47 | –
15 | COc1ccnc(NC(=O)CN2CC3(CC3)c3cc(Br)ccc3C2=O)n1 [Example 338, 2-(6-bromo-1-oxospiro[3H-isoquinoline-4,1′-cyclopropane]-2-yl)-N-(4-methoxypyrimidin-2-yl)acetamide] | 1.58 | –
16 | CC(C(=O)Nc1ncc(F)cn1)N1CC2(CC2)c2cc(Br)ccc2C1=O (centres unmarked) [Example 339, 2-(6-bromo-1-oxospiro[3H-isoquinoline-4,1′-cyclopropane]-2-yl)-N-(5-fluoropyrimidin-2-yl)propanamide] | 8.29 | –
17 | COC1(C)CC(NC(=O)CN2CC3(CC3)c3cc(Br)ccc3C2=O)C1 (stereo not drawn) [Example 340, 2-(6-bromo-1-oxospiro[3H-isoquinoline-4,1′-cyclopropane]-2-yl)-N-(3-trans-methoxy-3-methylcyclobutyl)acetamide] | – | 7.87
18 | COC1(C)CC(NC(=O)CN2CC3(CC3)c3cc(Br)ccc3C2=O)C1 (stereo not drawn) [Example 341, 2-(6-bromo-1-oxospiro[3H-isoquinoline-4,1′-cyclopropane]-2-yl)-N-(3-cis-methoxy-3-methylcyclobutyl)acetamide] | – | 2.41

Row | Structure (SMILES) | IC50 (Homo sapiens, THP-1, Table 4) [µM] | IC50 (Table 4) [µM]
19 | CN(C(=O)CN1CC2(CC2)c2cc(Br)ccc2C1=O)C1CC(C)(O)C1 (stereo not drawn) [Example 342, 2-(6-bromo-1-oxospiro[3H-isoquinoline-4,1′-cyclopropane]-2-yl)-N-(3-cis-hydroxy-3-methylcyclobutyl)-N-methylacetamide] | 17.1 | –
20 | O=C(CN1CC2(CC2)c2cc(Br)ccc2C1=O)Nc1nc2ccccn2c1F [Example 343, 2-(6-bromo-1-oxospiro[3H-isoquinoline-4,1′-cyclopropane]-2-yl)-N-(3-fluoroimidazo[1,2-a]pyridin-2-yl)acetamide] | 7.5 | –
21 | CC1(C(F)(F)F)CN(CC(=O)Nc2ncc(F)cn2)C(=O)c2c(Br)cccc21 (centres unmarked) [Example 344, 2-[8-bromo-4-methyl-1-oxo-4-(trifluoromethyl)-3H-isoquinolin-2-yl]-N-(5-fluoropyrimidin-2-yl)acetamide] | 27.6 | –
22 | N#Cc1cc(F)c(NC(=O)CN2CC3(CC3)c3cc(Br)ccc3C2=O)cn1 [Example 345, 2-(6-bromo-1-oxospiro[3H-isoquinoline-4,1′-cyclopropane]-2-yl)-N-(6-cyano-4-fluoropyridin-3-yl)acetamide] | 15.1 | –
23 | O=C(CN1CC2(CC2)c2cc(Br)ccc2C1=O)Nc1nccn2ncnc12 [Example 346, 2-(6-bromo-1-oxospiro[3H-isoquinoline-4,1′-cyclopropane]-2-yl)-N-([1,2,4]triazolo[1,5-a]pyrazin-8-yl)acetamide] | 1.57 | –
24 | CN1CCC(NC(=O)CN2CC3(CC3)c3cc(Br)ccc3C2=O)C1=O (centres unmarked) [Example 347, 2-(6-bromo-1-oxospiro[3H-isoquinoline-4,1′-cyclopropane]-2-yl)-N-(1-methyl-2-oxopyrrolidin-3-yl)acetamide] | 21.5 | –
25 | Cn1ccnc(NC(=O)CN2CC3(CC3)c3cc(Br)ccc3C2=O)c1=O [Example 348, 2-(6-bromo-1-oxospiro[3H-isoquinoline-4,1′-cyclopropane]-2-yl)-N-(4-methyl-3-oxopyrazin-2-yl)acetamide] | 1.32 | –
26 | O=C(CN1CC2(CC2)c2cc(Br)ccc2C1=O)Nc1nccc2cccnc12 [Example 349, 2-(6-bromo-1-oxospiro[3H-isoquinoline-4,1′-cyclopropane]-2-yl)-N-(1,7-naphthyridin-8-yl)acetamide] | 4.76 | –
27 | O=C(CN1CC2(CC2)c2cc(Br)ccc2C1=O)Nc1nccn2cnnc12 [Example 350, 2-(6-bromo-1-oxospiro[3H-isoquinoline-4,1′-cyclopropane]-2-yl)-N-([1,2,4]triazolo[4,3-a]pyrazin-8-yl)acetamide] | 3.59 | –
28 | O=C(CN1CC2(CC2)c2cc(Br)ccc2C1=O)Nc1nccn2ccnc12 [Example 351] | 4.23 | –
29 | O=C(CN1CC2(CC2)c2cc(Br)ccc2C1=O)Nc1nnc2ccccc2n1 [Example 352, N-(1,2,4-benzotriazin-3-yl)-2-(6-bromo-1-oxospiro[3H-isoquinoline-4,1′-cyclopropane]-2-yl)acetamide] | 6.08 | –
30 | CC1(C)CN=C(NC(=O)CN2CC3(CC3)c3cc(Br)ccc3C2=O)O1 [Example 353, 2-(6-bromo-1-oxospiro[3H-isoquinoline-4,1′-cyclopropane]-2-yl)-N-(5,5-dimethyl-4H-1,3-oxazol-2-yl)acetamide] | 5.42 | –
31 | O=C(CN1CC2(CC2)c2cc(C(F)(F)F)cc(Cl)c2C1=O)Nc1ncc(F)cn1 [Example 354, 2-[8-chloro-1-oxo-6-(trifluoromethyl)spiro[3H-isoquinoline-4,1′-cyclopropane]-2-yl]-N-(5-fluoropyrimidin-2-yl)acetamide] | 24 | –
32 | O=C(CN1CC2(CC2)c2cc(Br)ccc2C1=O)N[C@@H]1CCN(Cc2ccccc2)C1 [Example 355, N-[(3R)-1-benzylpyrrolidin-3-yl]-2-(6-bromo-1-oxospiro[3H-isoquinoline-4,1′-cyclopropane]-2-yl)acetamide] | 5.02 | –
33 | N#Cc1cccc2oc(NC(=O)CN3CC4(CC4)c4cc(Br)ccc4C3=O)nc12 [Example 356, 2-(6-bromo-1-oxospiro[3H-isoquinoline-4,1′-cyclopropane]-2-yl)-N-(4-cyano-1,3-benzoxazol-2-yl)acetamide] | 2.3 | –
34 | O=C(CN1CC2(CC2)c2cc(Br)ccc2C1=O)NC1CC(OCc2ccccc2)C1 (stereo not drawn) [Example 357, 2-(6-bromo-1-oxospiro[3H-isoquinoline-4,1′-cyclopropane]-2-yl)-N-(3-trans-phenylmethoxycyclobutyl)acetamide] | 5.21 | –
35 | O=C(CN1CC2(CC2)c2cc(Br)ccc2C1=O)Nc1nc2cc(C(F)(F)F)ccc2o1 [Example 358, 2-(6-bromo-1-oxospiro[3H-isoquinoline-4,1′-cyclopropane]-2-yl)-N-[5-(trifluoromethyl)-1,3-benzoxazol-2-yl]acetamide] | 1.29 | –
